Source: paper PMC5779714, “Metallochaperone UreG serves as a new target for design of urease inhibitor: A novel strategy for development of antimicrobials” (PLoS Biology, 2018)
Several values for one entry are separate records, joined by “and”; a condition that tells them apart may be missing. Equal entries are not always repeated.

Experiments:
H. pylori = experiment: Growth of H. pylori in neutral and acidic brucella broth (OD600); assay type: cell-based
H. pylori urease = H. pylori urease (Helicobacter pylori, UniProt P14916+P69996); experiment: cell-based; assay type: cell-based; settings: 20 μM compound in cultured medium; read-out: inhibition of urease activity in H. pylori cells
H. pylori urease, sequence (P14916 whole entry, looked up): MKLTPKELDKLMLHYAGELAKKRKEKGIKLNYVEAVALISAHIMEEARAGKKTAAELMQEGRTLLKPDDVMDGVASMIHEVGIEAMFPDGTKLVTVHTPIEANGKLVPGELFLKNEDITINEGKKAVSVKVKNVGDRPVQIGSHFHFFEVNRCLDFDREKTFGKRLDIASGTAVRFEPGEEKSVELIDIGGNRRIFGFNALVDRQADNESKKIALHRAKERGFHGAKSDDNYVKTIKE
H. pylori urease, sequence (P69996 whole entry, looked up): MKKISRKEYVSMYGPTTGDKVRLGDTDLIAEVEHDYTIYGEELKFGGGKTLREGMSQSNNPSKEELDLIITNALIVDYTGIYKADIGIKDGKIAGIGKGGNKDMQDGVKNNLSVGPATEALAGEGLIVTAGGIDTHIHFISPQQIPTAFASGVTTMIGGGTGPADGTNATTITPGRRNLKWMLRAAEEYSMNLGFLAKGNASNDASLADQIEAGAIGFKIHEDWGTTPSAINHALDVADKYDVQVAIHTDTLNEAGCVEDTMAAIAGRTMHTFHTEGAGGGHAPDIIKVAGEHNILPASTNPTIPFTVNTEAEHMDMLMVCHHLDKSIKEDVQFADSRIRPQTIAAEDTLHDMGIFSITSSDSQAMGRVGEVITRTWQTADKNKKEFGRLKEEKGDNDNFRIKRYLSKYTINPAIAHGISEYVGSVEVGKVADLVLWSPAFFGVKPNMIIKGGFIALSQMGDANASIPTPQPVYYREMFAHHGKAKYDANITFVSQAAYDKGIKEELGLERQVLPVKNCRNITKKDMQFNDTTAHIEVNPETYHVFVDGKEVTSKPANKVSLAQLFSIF

UreGΔNKXD = UreGΔNKXD (Helicobacter pylori, UniProt Q09066, D148A/K146A/N145A); experiment: Fluorescence-quenching titration of mutant UreGΔNKXD; assay type: binding, H. pylori
UreGΔNKXD, sequence (Q09066 whole entry N145A/K146A/D148A): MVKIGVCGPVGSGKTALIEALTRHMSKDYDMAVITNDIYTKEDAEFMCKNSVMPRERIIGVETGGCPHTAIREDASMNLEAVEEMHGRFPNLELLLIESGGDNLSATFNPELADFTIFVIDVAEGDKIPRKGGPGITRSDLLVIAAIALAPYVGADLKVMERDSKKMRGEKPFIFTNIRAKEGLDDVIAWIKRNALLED
Description: To further confirm the interface between UreG and small molecules generated from computational models, we then constructed an UreG mutant (UreGΔNKXD) by replacing selected residues (N145, K146, D148) with Ala to disrupt G4 motif, which abolished GTP binding of UreG (S17 Fig).
(§1) Using the relation between the emission intensity at 310 nm and molecule-UreG–bound species, as well as one site-binding model, the Kd values were calculated by a logistic regression model referring to a previous report. […] All fluorescence readings were corrected for the dilution effect.

UreG [1] = biological target: T1, UreG (Helicobacter pylori, UniProt Q09066); experiment: Fluorescence-quenching titration of UreG (Kd); assay type: binding, H. pylori
T1 sequence (Q09066 whole entry): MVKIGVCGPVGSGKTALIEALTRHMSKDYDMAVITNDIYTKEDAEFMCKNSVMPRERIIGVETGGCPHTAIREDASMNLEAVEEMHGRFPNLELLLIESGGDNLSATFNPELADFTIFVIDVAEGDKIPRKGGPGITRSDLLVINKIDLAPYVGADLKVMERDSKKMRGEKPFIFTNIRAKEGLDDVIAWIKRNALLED
Description: as §1

UreG [2] = biological target: T1, UreG; experiment: biochemical; assay type: biochemical, H. pylori
Description: A Malachite Green Phosphate Assay Kit (Abcam) was utilized to quantify the hydrolysis of GTP by UreG under various conditions. […] GTPase activity of UreG was triggered through the addition of 10 mM KHCO3, after which the reaction was incubated at 37°C for 30 min; then, the free phosphate from hydrolysis of GTP was determined. […] To eliminate the potential effect of small compounds on malachite green assay, the assay included a subtraction of the absorbance of reaction with the same amounts of compounds but without UreG enzyme for each reading.

[3] = tested on: AGS cells with H. pylori infection; experiment: AGS cells with H. pylori infection, inhibitors administrated to the AGS cells (S20 Fig); assay type: cell-based, human; settings: 10 μM administrated to AGS cells with H. pylori infection
Source text: As expected, low viability of AGS with the supplement of cmpd4 and cmpd8 was observed due to the toxicity of small compounds to mammalian cells. […] (PNG) Click here for additional data file.

UreG [4] = biological target: T1, UreG; experiment: Nickel binding of UreG (UV absorption at 337 nm) in presence of compounds; parameters: species or system H. pylori
Description: We further investigated whether binding of cmpd4 or cmpd8 to the guanine nucleotide binding pocket perturbed the Ni(II) coordination to the protein. Considering that coordination of Ni(II) to UreG results in a (Cys)→Ni(II) LMCT band centered at about 337 nm, we monitored the UV absorption of UreG samples (5 μM) at 337 nm upon titration of nickel with or without the supplement of cmpd4 or cmpd8. As shown in S19 Fig, cmpd4 at a ratio of [cmpd4]/[UreG] of 5 and 10 reduced the percentages of Ni(II)-bound UreG to ca. 75% and 30%, respectively, and a similar phenomenon was also observed for cmpd8 (S19 Fig), indicative of the disruption of nickel binding property of UreG through targeting nucleotide binding site.
Supplementary file pbio.2003887.s021.png: S19 Fig Effect of cmpd4 and cmpd8 on nickel binding property of UreG. UreG (5 μM) in HEPES buffer (5 μM GTP, 1 mM MgSO4) was titrated with NiSO4 in the presence of cmpd4 or cmpd8 at various concentrations. Titration of nickel ion into UreG samples led to the increasing of absorption at 337 nm, the highest of which was set as 100% for the percentage of Ni-bound UreG. The supplement of cmpd4 and cmpd8 reduced the percentage of Ni-bound UreG. […] (PNG) Click here for additional data file.

[5] = tested on: AGS cells exposed to H. pylori; experiment: Cell infection model: AGS cells exposed to H. pylori pre-cultured with inhibitors; assay type: cell-based, human

## O=C(Cn1c2ccccc2c(=O)c2ccccc21)N/N=C/c1cc([N+](=O)[O-])ccc1N1CCCCCC1 [cmpd8]
H. pylori; pH 5
  OD600(pH5): 0.47
H. pylori; pH 7
  OD600 (pH7): 0.116
H. pylori urease
  inhibition at 20 µM: ~90%
UreGΔNKXD
  Kd: 33.4 µM
UreGΔNKXD; log(ligand[μM]) 0
  fluorescence intensity (a.u.): 2422.67 a.u.
UreGΔNKXD; log(ligand[μM]) 0.30103
  fluorescence intensity (a.u.): 2357.67 a.u.
UreGΔNKXD; log(ligand[μM]) 0.60206
  fluorescence intensity (a.u.): 2253.67 a.u.
UreGΔNKXD; log(ligand[μM]) 0.90309
  fluorescence intensity (a.u.): 2017.33 a.u.
UreGΔNKXD; log(ligand[μM]) 1.20412
  fluorescence intensity (a.u.): 1677.67 a.u.
UreGΔNKXD; log(ligand[μM]) 1.50515
  fluorescence intensity (a.u.): 1189.33 a.u.
UreGΔNKXD; log(ligand[μM]) 1.80618
  fluorescence intensity (a.u.): 685.167 a.u.
UreGΔNKXD; log(ligand[μM]) 2.10721
  fluorescence intensity (a.u.): 316.133 a.u.
UreGΔNKXD; log(ligand[μM]) -0.30103
  fluorescence intensity (a.u.): 2519 a.u.
UreGΔNKXD; log(ligand[μM]) -1.30103
  fluorescence intensity (a.u.): 2677 a.u.
UreG [1]
  Kd: 7.5 ± 3.6 µM
UreG [1]; log(ligand[μM]) 0
  fluorescence intensity (a.u.): 2868.33 a.u.
UreG [1]; log(ligand[μM]) 0.30103
  fluorescence intensity (a.u.): 2606 a.u.
UreG [1]; log(ligand[μM]) 0.60206
  fluorescence intensity (a.u.): 2272 a.u.
UreG [1]; log(ligand[μM]) 0.90309
  fluorescence intensity (a.u.): 1853.67 a.u.
UreG [1]; log(ligand[μM]) 1.20412
  fluorescence intensity (a.u.): 1359.33 a.u.
UreG [1]; log(ligand[μM]) 1.50515
  fluorescence intensity (a.u.): 767.233 a.u.
UreG [1]; log(ligand[μM]) 1.68124
  fluorescence intensity (a.u.): 595.5 a.u.
UreG [1]; log(ligand[μM]) 1.80618
  fluorescence intensity (a.u.): 360.267 a.u.
UreG [1]; log(ligand[μM]) -0.30103
  fluorescence intensity (a.u.): 3140.33 a.u.
UreG [1]; log(ligand[μM]) -0.60206
  fluorescence intensity (a.u.): 3427 a.u.
UreG [1]; log(ligand[μM]) -1.30103
  fluorescence intensity (a.u.): 3670 a.u.
UreG [2]
  IC50: 13.2 ± 7.6 µM
UreG [2]; log[μM] 0
  Normalized GTPase activity(%): 100.3%
UreG [2]; log[μM] 0.60206
  Normalized GTPase activity(%): 93.8%
UreG [2]; log[μM] 0.90309
  Normalized GTPase activity(%): 81.8%
UreG [2]; log[μM] 1.20412
  Normalized GTPase activity(%): 41.6%
UreG [2]; log[μM] 1.50515
  Normalized GTPase activity(%): 32.9%
UreG [2]; log[μM] 1.79588
  Normalized GTPase activity(%): 13.8%
UreG [2]; log[μM] 2.09691
  Normalized GTPase activity(%): 2.1%
UreG [2]; log[μM] 2.39794
  Normalized GTPase activity(%): 16.7%
UreG [2]; read-out: inhibition of the GTPase activity of UreG
  inhibition at 20 µM: 37 to 72%
[3]
  Ammonia in medium: 0.5294 mM
  Normalized cell survival (%): low viability
[3]; listed as cmp8
  Normalized cell survival (%): 23.4234%
UreG [4]; [compound]/[UreG] 5, Ni 0 μM
  absorption at 337 nm: 2.14E-04
UreG [4]; [compound]/[UreG] 5, Ni 1 μM
  absorption at 337 nm: 0.00481
UreG [4]; [compound]/[UreG] 5, Ni 2 μM
  absorption at 337 nm: 0.0064
UreG [4]; [compound]/[UreG] 5, Ni 3 μM
  absorption at 337 nm: 0.00838
UreG [4]; [compound]/[UreG] 5, Ni 4 μM
  absorption at 337 nm: 0.01641
UreG [4]; [compound]/[UreG] 5, Ni 5 μM
  absorption at 337 nm: 0.0186
UreG [4]; [compound]/[UreG] 5, Ni 6 μM
  absorption at 337 nm: 0.01908
UreG [4]; [compound]/[UreG] 5, Ni 7 μM
  absorption at 337 nm: 0.02094
UreG [4]; [compound]/[UreG] 5, Ni 8 μM
  absorption at 337 nm: 0.0213
UreG [4]; [compound]/[UreG] 10, Ni 0 μM
  absorption at 337 nm: 0.00131
UreG [4]; [compound]/[UreG] 10, Ni 1 μM
  absorption at 337 nm: 0.00222
UreG [4]; [compound]/[UreG] 10, Ni 2 μM
  absorption at 337 nm: 0.00217
UreG [4]; [compound]/[UreG] 10, Ni 3 μM
  absorption at 337 nm: 0.00973
UreG [4]; [compound]/[UreG] 10, Ni 4 μM
  absorption at 337 nm: 0.01047
UreG [4]; [compound]/[UreG] 10, Ni 5 μM
  absorption at 337 nm: 0.01403
UreG [4]; [compound]/[UreG] 10, Ni 6 μM
  absorption at 337 nm: 0.0146
UreG [4]; [compound]/[UreG] 10, Ni 7 μM
  absorption at 337 nm: 0.01179
UreG [4]; [compound]/[UreG] 10, Ni 8 μM
  absorption at 337 nm: 0.01166
[5]
  Normalized cell survival (%): 81.1% ± 11.3% and 81.0811%
[5]; H. pylori pre-cultured with 10 μM inhibitor, urea 10 mM, 24 h, Hp alone ca. 2.5 mM
  Ammonia in medium (mM): around 1.1 mM
[5]; H. pylori pre-cultured with 10 μM inhibitor, urea 10 mM, 24 h, Hp alone ca. 2.5 mM, listed as cmp8
  Ammonia in medium: 1.209 mM
